Assay results published in ChEMBL document CHEMBL1201862, “PubChem BioAssay data set” (2004).
Active and inactive are the calls of the source.

Key:
CAAX prenyl protease 2 = biological target: T1, CAAX prenyl protease 2 (Saccharomyces cerevisiae S288c, UniProt Q03530); type: biochemical
T1 sequence (Q03530 whole entry): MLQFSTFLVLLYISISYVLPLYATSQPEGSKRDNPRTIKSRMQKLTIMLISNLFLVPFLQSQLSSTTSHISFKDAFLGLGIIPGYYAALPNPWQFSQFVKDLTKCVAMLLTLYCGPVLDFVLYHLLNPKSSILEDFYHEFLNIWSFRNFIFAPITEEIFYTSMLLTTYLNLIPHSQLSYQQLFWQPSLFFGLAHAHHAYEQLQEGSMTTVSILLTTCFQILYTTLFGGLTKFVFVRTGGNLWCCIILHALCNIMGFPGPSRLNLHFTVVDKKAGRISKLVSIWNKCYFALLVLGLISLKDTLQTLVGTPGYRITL

CAAX prenyl protease 1 = CAAX prenyl protease 1 (Saccharomyces cerevisiae S288c, UniProt P47154); assay: yeast CAAX protease Ste24 inhibition – biochemical, S. cerevisiae, plate reader, cherry-pick, dose response (AID 488815)
Galanin receptor type 2 = Galanin receptor type 2 (Homo sapiens, UniProt O43603); assay: Dose Response cell-based high-throughput screening assay to identify antagonists of galanin receptor 2 (GALR2). [Related pubchem assays: 828, 866 ]; type: functional
[1] = Luminescence Cell-Based Dose Retest to Confirm Inhibitors of Cancer Stem Cells. [Related pubchem assays (depositor defined):AID2717, AID2721]; type: functional; settings: Homo sapiens
[2] = viability loss of HMLE_sh_eGFP cells – cell-based, luminescence, counter-screen for HMLE_sh_ECad selective toxicity project, dose response (AID 463074); type: functional, Homo sapiens;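 further: HMLE human mammary epithelial cells expressing control shRNA against eGFP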
INS1 = assay: INS-1E survival protection against cytokine death – cell-based, luminescence, retest, dose response (AID 449756); type: functional; settings: Rattus norvegicus, INS1;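 further: cell death triggered by IL-1 beta plus TNF-alpha plus IFN-gamma mixture; protective hits raise ATP signal compared with cytokine alone wells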
Protein Wnt-3a = Protein Wnt-3a (Mus musculus, UniProt P27467); assay: antagonism of Wnt3a pathway luciferase reporter – Wnt-LIGHT cells, luminescence, selectivity assay for Gli-SUFU antagonist project, dose response (AID 651570); type: functional; settings: read-out: IC50_Mean;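 further: Wnt-LIGHT reporter cells stimulated with conditioned medium from Wnt3a-producing cells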
Galanin receptor type 3 = biological target: T2, Galanin receptor type 3 (Homo sapiens, UniProt O60755); assay: Fluorescence-based cell-based primary high throughput dose response assay to identify antagonists of the Galanin Receptor 3 (GalR3).; type: functional
T2 sequence (O60755 whole entry): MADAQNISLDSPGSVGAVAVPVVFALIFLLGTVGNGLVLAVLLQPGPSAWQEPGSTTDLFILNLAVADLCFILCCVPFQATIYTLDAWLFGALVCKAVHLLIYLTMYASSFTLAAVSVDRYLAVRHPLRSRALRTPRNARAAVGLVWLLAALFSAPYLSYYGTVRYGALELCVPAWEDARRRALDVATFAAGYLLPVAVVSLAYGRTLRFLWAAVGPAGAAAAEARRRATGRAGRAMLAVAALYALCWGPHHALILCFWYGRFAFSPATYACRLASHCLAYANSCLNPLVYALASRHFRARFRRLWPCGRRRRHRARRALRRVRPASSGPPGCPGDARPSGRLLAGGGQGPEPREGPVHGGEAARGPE

cells = type: functional, cell-based; settings: HEK-CNG
[3] = Luminescent dose response cell-based high throughput screening assay for inhibitors of the Janus kinase 2 mutant JAK2V617F. [Related pubchem assays: 1446 (Primary screen.), 1521 (Confirmation assay.), 1486 (Counter screen.)]; type: functional
Vero [4] = assay: cells; type: functional, cell-based; settings: Chlorocebus sabaeus
Vero [5] = assay: cells; type: functional; settings: Chlorocebus sabaeus
[6] = biological target: G-protein coupled receptor 35 (Homo sapiens, UniProt Q9HC97); assay: SAR Analysis for the identification of Selective Antagonists of ERK1/2 Activity in GPR35-Overexpressing U2OS Cells. [Related pubchem assays: 2079, 2058 ]; type: functional, cell-based
[7] = biological target: T3, Tyrosine-protein phosphatase non-receptor type 12 (Homo sapiens, UniProt Q05209); assay: SAR Selectivity Analysis of small molecule inhibitors of PEST using pCAP in a fluorescence assay. [Related pubchem assays (depositor defined):AID1779, AID1784, AID2135]; type: functional
T3 sequence (Q05209 whole entry): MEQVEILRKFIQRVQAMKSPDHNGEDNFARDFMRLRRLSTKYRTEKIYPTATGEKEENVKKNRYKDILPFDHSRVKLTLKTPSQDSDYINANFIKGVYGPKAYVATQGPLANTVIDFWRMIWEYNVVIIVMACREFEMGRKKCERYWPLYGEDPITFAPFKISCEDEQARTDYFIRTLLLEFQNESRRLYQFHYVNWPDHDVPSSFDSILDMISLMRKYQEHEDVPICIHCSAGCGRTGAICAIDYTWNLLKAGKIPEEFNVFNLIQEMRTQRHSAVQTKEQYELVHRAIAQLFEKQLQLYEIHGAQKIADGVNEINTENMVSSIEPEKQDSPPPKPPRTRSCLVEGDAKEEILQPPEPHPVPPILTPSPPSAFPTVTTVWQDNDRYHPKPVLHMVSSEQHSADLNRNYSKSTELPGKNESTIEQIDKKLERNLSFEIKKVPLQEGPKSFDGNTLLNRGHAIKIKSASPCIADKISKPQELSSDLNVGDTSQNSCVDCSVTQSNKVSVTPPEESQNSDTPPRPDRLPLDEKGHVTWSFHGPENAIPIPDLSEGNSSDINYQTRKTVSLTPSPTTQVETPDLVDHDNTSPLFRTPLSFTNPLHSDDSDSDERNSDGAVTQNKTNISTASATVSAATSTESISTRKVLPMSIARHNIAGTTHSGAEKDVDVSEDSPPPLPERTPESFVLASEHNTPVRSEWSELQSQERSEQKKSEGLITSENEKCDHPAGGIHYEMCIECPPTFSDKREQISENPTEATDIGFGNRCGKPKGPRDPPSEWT

[8] = biological target: T4, Tyrosine-protein phosphatase non-receptor type 22 (Homo sapiens, UniProt Q9Y2R2); assay: SAR LYP1 Fluorescent Assay using OMFP substrate for In Vitro dose response studies - Set 3. [Related pubchem assays (depositor defined):AID1779, AID1784, AID2140, AID2686]; type: functional
T4 sequence (Q9Y2R2 whole entry): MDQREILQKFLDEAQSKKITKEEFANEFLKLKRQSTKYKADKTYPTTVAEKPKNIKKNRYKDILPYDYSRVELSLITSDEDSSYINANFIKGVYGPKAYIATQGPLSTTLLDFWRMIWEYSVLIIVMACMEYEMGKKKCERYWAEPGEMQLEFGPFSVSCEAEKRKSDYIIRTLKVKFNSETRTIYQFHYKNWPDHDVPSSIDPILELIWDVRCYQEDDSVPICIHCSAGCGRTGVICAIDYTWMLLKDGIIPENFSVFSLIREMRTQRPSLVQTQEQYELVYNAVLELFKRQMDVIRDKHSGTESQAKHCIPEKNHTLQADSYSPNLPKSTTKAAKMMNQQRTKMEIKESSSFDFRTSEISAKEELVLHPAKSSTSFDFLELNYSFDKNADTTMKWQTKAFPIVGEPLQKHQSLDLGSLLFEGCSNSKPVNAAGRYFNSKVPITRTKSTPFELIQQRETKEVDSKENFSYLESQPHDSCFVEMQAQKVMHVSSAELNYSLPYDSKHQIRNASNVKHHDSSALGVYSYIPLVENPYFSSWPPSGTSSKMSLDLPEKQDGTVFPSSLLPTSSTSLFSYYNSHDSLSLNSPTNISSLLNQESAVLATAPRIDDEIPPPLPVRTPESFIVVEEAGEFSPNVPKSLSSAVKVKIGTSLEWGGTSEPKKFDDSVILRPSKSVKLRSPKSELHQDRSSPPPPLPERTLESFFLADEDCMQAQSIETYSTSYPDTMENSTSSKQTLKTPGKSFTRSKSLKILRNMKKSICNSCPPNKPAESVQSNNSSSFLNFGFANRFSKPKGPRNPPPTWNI

[9] = biological target: T5, Tyrosine-protein phosphatase non-receptor type 7 (Homo sapiens, UniProt P35236); assay: inhibition of hematopoietic tyrosine phosphatase HePTP – biochemical, set 2, SAR follow-up (AID 449736); type: functional
T5 sequence (P35236 whole entry): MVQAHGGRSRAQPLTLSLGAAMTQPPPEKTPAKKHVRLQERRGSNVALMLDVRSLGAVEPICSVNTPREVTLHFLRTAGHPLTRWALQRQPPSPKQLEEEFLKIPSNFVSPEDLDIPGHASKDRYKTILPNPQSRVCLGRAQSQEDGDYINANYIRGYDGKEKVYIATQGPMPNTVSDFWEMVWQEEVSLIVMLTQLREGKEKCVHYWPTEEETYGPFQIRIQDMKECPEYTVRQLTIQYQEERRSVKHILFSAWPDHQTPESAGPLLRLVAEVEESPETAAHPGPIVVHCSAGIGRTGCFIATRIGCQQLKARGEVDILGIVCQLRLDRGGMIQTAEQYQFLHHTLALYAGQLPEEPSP

[10] = biological target: T4, Tyrosine-protein phosphatase non-receptor type 22; assay: inhibition of lymphoid tyrosine phosphatase LYP – biochemical, pCAP fluorogenic substrate, fluorescence, set 3, SAR follow-up (AID 449727); type: functional
[11] = biological target: G-protein coupled receptor 55 (Homo sapiens, UniProt Q9Y2T6); assay: blockers of GPR55 signalling, imaged – imaging, image-based, counter-screen for GPR35 antagonist project, SAR follow-up (AID 2397); type: functional
HEK293 [12] = assay: inhibition of NOD1-driven NF-kB reporter – cell-based, luminescence, uHTS, primary screen (AID 1578); type: functional; settings: Homo sapiens
HEK293 [13] = assay: cells; type: functional, cell-based; settings: Homo sapiens
HEK293 [14] = assay: cells; type: functional, cell-based; settings: Homo sapiens; remark: listed apart in the source
HEK293 [15] = assay: NOD2 signaling inhibitors in MDP-stimulated cells, cell-based, uHTS, luminescence (AID 2001); type: functional; settings: Homo sapiens
Tumor necrosis factor = Tumor necrosis factor (Homo sapiens, UniProt P01375); assay: analog potency on TNFa NF-kB signaling – cell-based, revised, SAR follow-up (AID 2337); type: functional
[16] = biological target: Nucleotide-binding oligomerization domain-containing protein 1 (Homo sapiens, UniProt Q9Y239); assay: blockers of NOD1 pathway activity – revised, SAR follow-up (AID 2333); type: functional
[17] = biological target: T6, COUP transcription factor 2 (Homo sapiens, UniProt P24468); assay: Luminescence-based cell-based high throughput dose response assay to identify inhibitors of COUP-TFII (NR2F2).; type: functional;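 further: HEK293 cells transiently cotransfected with COUP-TFII expression vector and reporter; luciferase reporter luminescence driven by COUP-TFII from the pX2-168 reporter plasmid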
T6 sequence (P24468 whole entry): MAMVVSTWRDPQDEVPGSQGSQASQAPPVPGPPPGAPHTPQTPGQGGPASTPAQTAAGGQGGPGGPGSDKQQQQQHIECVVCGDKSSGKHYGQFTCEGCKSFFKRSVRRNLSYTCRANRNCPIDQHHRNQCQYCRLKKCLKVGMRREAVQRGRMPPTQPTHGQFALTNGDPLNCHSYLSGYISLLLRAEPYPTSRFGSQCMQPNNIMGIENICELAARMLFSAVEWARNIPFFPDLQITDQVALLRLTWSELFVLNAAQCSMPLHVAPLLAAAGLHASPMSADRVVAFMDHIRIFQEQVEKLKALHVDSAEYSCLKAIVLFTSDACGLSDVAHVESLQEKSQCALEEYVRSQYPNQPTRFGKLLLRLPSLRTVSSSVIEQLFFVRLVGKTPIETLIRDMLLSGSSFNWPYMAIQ

HEK293 [18] = assay: cells; settings: Homo sapiens
SUMO E1/E2 = SUMO E1/E2 (Homo sapiens, UniProt P63279+Q9UBE0+Q9UBT2); assay: SAR analysis of SUMOylation using HTRF in an in-Vitro dose response assay. [Related pubchem assays (depositor defined):AID2006, AID2011, AID2018, AID2069, AID2658]; type: functional
Chain of SUMO E1/E2 (Q9UBE0 whole entry): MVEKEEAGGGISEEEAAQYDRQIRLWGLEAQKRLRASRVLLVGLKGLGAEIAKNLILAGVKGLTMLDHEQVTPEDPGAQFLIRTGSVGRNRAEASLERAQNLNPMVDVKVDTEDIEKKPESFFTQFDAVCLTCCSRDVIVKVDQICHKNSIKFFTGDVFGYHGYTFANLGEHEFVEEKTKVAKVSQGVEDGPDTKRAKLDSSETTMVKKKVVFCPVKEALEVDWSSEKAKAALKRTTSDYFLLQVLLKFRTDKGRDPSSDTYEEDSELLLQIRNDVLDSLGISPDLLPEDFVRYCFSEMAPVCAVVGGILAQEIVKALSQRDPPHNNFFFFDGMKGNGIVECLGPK
Chain of SUMO E1/E2 (Q9UBT2 whole entry): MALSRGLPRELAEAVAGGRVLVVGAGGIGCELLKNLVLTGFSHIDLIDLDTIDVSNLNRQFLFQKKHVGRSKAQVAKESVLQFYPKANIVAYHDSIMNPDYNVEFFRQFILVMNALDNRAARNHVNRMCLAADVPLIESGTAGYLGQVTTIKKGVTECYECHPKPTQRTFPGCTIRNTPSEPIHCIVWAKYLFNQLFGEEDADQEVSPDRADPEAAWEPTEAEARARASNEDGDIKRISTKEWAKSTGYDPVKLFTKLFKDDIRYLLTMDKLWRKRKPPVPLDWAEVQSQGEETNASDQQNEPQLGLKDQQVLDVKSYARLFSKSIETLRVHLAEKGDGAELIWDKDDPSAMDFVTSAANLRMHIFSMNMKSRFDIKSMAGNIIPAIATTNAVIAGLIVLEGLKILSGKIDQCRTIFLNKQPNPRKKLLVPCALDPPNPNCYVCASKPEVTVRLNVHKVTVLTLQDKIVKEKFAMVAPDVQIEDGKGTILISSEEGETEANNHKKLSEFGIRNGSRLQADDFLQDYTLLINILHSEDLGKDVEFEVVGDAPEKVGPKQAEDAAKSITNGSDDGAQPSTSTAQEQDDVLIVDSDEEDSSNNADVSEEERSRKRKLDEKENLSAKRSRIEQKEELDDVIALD
Chain of SUMO E1/E2 (P63279 whole entry): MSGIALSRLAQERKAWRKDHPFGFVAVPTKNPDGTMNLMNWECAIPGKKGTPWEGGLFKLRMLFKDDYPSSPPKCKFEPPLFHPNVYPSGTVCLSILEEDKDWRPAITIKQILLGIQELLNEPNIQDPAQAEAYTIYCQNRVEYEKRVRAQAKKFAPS

Chain of Nucleotide-binding oligomerization domain-containing protein 1 (Q9Y239 whole entry, the tested form may be a part): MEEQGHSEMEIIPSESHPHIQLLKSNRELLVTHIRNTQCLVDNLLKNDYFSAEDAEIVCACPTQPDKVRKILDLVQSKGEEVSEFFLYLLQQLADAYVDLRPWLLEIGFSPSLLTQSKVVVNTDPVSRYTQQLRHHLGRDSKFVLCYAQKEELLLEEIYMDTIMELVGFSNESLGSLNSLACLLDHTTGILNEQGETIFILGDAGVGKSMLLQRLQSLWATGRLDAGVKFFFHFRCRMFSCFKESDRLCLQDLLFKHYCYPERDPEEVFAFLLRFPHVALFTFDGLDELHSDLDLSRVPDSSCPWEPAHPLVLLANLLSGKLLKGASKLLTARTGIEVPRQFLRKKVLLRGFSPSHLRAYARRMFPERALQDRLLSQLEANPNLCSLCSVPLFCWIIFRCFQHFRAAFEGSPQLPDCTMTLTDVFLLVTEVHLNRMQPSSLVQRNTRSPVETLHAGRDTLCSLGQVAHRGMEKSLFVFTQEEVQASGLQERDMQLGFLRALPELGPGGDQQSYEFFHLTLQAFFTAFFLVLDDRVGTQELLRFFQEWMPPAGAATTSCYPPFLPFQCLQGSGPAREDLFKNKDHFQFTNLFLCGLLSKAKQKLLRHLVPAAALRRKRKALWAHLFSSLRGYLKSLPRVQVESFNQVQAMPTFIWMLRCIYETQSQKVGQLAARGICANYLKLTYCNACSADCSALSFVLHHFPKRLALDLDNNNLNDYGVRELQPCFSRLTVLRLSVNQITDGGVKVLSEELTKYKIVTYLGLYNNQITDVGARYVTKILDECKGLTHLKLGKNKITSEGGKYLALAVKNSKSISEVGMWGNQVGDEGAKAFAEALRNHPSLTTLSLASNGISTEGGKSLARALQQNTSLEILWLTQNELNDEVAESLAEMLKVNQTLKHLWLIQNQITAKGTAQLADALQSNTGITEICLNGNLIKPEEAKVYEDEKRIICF
Chain of G-protein coupled receptor 35 (Q9HC97 whole entry): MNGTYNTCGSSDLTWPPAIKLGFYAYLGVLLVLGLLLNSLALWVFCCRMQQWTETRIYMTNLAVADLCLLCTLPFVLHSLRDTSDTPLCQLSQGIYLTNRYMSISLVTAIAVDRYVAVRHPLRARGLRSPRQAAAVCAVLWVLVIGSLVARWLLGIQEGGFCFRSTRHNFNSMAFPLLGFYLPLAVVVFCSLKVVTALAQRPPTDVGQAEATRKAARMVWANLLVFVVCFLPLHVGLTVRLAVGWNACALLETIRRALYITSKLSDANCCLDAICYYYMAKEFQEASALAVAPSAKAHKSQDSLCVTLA
Chain of CAAX prenyl protease 1 (P47154 whole entry): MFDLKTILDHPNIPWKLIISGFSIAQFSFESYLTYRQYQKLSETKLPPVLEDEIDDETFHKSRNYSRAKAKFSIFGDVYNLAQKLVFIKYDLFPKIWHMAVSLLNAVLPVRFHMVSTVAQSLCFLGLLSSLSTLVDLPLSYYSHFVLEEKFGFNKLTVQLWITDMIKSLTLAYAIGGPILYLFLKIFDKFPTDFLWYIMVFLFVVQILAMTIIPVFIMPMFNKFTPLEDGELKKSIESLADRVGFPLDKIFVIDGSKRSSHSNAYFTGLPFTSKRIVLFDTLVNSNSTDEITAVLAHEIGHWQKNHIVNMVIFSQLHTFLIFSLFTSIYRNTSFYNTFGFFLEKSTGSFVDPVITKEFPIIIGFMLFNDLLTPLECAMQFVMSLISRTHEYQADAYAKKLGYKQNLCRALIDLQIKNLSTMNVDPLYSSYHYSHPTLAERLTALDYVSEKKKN
Chain of Protein Wnt-3a (P27467 whole entry): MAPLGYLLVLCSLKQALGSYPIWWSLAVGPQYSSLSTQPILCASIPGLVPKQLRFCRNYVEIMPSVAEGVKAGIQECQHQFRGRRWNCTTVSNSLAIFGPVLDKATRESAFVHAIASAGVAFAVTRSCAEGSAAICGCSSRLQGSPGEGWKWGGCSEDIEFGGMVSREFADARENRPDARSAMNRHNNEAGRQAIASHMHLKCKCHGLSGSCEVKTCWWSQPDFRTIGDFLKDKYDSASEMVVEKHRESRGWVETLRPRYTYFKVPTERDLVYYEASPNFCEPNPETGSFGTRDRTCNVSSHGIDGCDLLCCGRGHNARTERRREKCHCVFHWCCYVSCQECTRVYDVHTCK
Chain of Tumor necrosis factor (P01375 whole entry, the tested form may be a part): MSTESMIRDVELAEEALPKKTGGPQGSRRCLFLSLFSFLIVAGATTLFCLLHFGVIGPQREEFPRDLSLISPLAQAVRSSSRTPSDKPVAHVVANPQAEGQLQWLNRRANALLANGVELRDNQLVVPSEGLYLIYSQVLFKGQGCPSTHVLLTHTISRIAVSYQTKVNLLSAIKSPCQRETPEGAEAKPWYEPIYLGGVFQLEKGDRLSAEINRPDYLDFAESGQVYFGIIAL
Chain of Galanin receptor type 2 (O43603 whole entry): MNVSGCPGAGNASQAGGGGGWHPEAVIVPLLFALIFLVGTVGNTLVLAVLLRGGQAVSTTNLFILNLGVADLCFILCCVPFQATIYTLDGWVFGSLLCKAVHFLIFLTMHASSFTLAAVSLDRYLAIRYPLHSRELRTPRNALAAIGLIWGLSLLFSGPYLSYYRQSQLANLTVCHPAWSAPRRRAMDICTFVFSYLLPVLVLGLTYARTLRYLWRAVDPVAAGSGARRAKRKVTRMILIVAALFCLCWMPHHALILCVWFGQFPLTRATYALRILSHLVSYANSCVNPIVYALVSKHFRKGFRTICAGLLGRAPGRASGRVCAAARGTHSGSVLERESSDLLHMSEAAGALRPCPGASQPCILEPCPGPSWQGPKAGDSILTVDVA
Chain of G-protein coupled receptor 55 (Q9Y2T6 whole entry): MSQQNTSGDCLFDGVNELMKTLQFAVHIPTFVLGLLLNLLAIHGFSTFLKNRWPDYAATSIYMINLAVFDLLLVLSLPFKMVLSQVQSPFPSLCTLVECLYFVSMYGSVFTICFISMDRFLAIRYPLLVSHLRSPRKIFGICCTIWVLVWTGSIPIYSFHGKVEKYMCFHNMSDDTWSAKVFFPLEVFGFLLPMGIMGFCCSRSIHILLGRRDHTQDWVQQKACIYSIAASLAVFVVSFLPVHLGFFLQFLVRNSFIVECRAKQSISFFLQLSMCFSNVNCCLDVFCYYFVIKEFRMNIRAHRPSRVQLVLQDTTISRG

**Q.** For Cc1cc(C)c2cc(C#N)c(NCCCNC(=O)CCC(=O)O)nc2c1, which AC50 (CAAX prenyl protease 2) is on record?
**A.** 36.9 µM (active)

**Q.** What about the AC50 (CAAX prenyl protease 1) of the same compound?
**A.** 29.9 µM (active)

**Q.** What does the source list for CCCCOc1[nH]cnc2c3cc(F)ccc3nc1-2?
**A.** IC50 (Galanin receptor type 2): 472 µM (not active); AC50 [1]: > 195 µM (inactive); AC50 [2]: 52.7 µM (active); AC50 (INS1): 4.34 µM (active); IC50 (Protein Wnt-3a): 1.56 µM (active); IC50 (Galanin receptor type 3): 2.19 µM (active); EC50 (cells): > 29.9 µM (inactive)

**Q.** Which results are given for COc1cc(/C=C2\COC/C(=C\c3ccc(O)c(OC)c3)C2=O)ccc1O?
**A.** IC50 [3]: 1.15 µM (active); IC50 (Vero [4]): > 25 µM (active); CC50 (Vero [5]): 5.27 µM (active)

**Q.** What does the source list for COc1ccc(/C=C2\SC(=S)N(CCCC(=O)Nc3ccc(C(=O)O)c(O)c3)C2=O)cc1OC?
**A.** IC50 [6]: 0.522 µM (active); IC50 [7]: 17.9 µM (active); IC50 [8]: > 100 µM (inactive); IC50 [9]: 9.74 µM (active); IC50 [10]: 58.5 µM (active); IC50 [11]: > 32 µM (inactive)

**Q.** What does the source list for CSc1ccccc1OCc1cc(C(=O)N2CCC(c3ccncc3)CC2)no1?
**A.** EC50 (HEK293 [12]): 2.09 µM (active); IC50 (HEK293 [13]): 3.97 µM (active); IC50 (HEK293 [14]): 8.95 µM (active); IC50 (HEK293 [15]): 5.04 µM (active); IC50 (Tumor necrosis factor): 3.22 µM (active); IC50 [16]: 3.18 µM (active); IC50 [17]: 10.3 µM (inactive); IC50 (HEK293 [18]): > 20 µM (inactive)

**Q.** Which IC50 (SUMO E1/E2) does the source give for Cc1ccc(N=Cc2sccc2C)cc1C here?
**A.** > 100 µM (inactive)
